Measured values: patent publication US9211310B2, “Use of a Chinese medicine composition in preparing medicaments for treating secondary prevention of myocardial infarction” (TASLY PHARMACEUTICAL GROUP CO., LTD, priority 2010, dated 2015)

Tested on: patients after acute myocardial infarction
Assay: Life quality, Seattle Angina Questionnaire (SAQ), same clinical trial
Format: in vivo, human
Excerpt: 3508 patients who were in accordance with the diagnostic standards of AMI for 28 days to 2 years and differentiated as Qi deficiency and blood stagnation syndrome by TCM were studied. 0.5 g Chinese medicine composition prepared by the method of EXAMPLE 1 (Coded as QSYQ) was administrated half an hour after meal, 3 times per day.
There were 19 questions in the Seattle angina questionnaire (SAQ), including 5 parts: physical limitation (PL), anginal stability (AS), anginal frequency (AF), treatment satisfaction (TS) and disease perception (DP). After being given necessary explanation by doctors, the questions were answered independently by patients.
They included the overall survival time, angina pectoris score, TCM symptom score and life quality score, where angina pectoris score, TCM symptom score and life quality score were evaluated at randomization, in 1st, 3rd, 6th, 9th, 12th month after treatment and 18th month after follow-up.
All evaluation results of SAQ were described during the period of observation, and Wilcoxon rank sum test was used for inter-group comparison.
The evaluation results in the SAQ were depicted in different observations, and inter-group comparison was tested by Wilcoxon Rank-sum test.

CC(=O)Oc1ccccc1C(=O)O [Control group, aspirine]
SAQ 3rd question: ≧4 times per day, cases (3 months after treatment, PP): 6 | SAQ Question 1-3: Mildly limited, number of patients (3 months after treatment, PP): 81 | SAQ Question 1-3: Mildly limited, percent of patients (3 months after treatment, PP): (5.51%) | SAQ Question 1-3: Moderately limited, number of patients (3 months after treatment, PP): 16 | SAQ Question 1-3: Moderately limited, percent of patients (3 months after treatment, PP): (1.09%) | SAQ Question 1-3: Not limited, number of patients (3 months after treatment, PP): 1103 | SAQ Question 1-3: Not limited, percent of patients (3 months after treatment, PP): (75.03%) | SAQ Question 1-3: Other reason, number of patients (3 months after treatment, PP): 8 | SAQ Question 1-3: Other reason, percent of patients (3 months after treatment, PP): (0.54%) | SAQ Question 1-3: Severely limited, number of patients (3 months after treatment, PP): 5 | SAQ Question 1-3: Severely limited, percent of patients (3 months after treatment, PP): (0.34%) | SAQ Question 1-3: Slightly limited, number of patients (3 months after treatment, PP): 257 | SAQ Question 1-3: Slightly limited, percent of patients (3 months after treatment, PP): (17.48%) | SAQ Question 1-4: Mildly limited, number of patients (3 months after treatment, PP): 278 | SAQ Question 1-4: Mildly limited, percent of patients (3 months after treatment, PP): (18.95%) | SAQ Question 1-4: Moderately limited, number of patients (3 months after treatment, PP): 105 | SAQ Question 1-4: Moderately limited, percent of patients (3 months after treatment, PP): (7.16%) | SAQ Question 1-4: Not limited, number of patients (3 months after treatment, PP): 559 | SAQ Question 1-4: Not limited, percent of patients (3 months after treatment, PP): (38.10%) | SAQ Question 1-4: Other limited, number of patients (3 months after treatment, PP): 11 | SAQ Question 1-4: Other limited, percent of patients (3 months after treatment, PP): (0.75%) | SAQ Question 1-4: Severely limited, number of patients (3 months after treatment, PP): 22 | SAQ Question 1-4: Severely limited, percent of patients (3 months after treatment, PP): (1.50%) | SAQ Question 1-4: Slightly limited, number of patients (3 months after treatment, PP): 492 | SAQ Question 1-4: Slightly limited, percent of patients (3 months after treatment, PP): (33.54%) | SAQ Question 1-5: Mildly limited, number of patients (3 months after treatment, PP): 268 | SAQ Question 1-5: Mildly limited, percent of patients (3 months after treatment, PP): (18.27%) | SAQ Question 1-5: Moderately limited, number of patients (3 months after treatment, PP): 137 | SAQ Question 1-5: Moderately limited, percent of patients (3 months after treatment, PP): (9.34%) | SAQ Question 1-5: Not limited, number of patients (3 months after treatment, PP): 594 | SAQ Question 1-5: Not limited, percent of patients (3 months after treatment, PP): (40.49%) | SAQ Question 1-5: Other reasons, number of patients (3 months after treatment, PP): 11 | SAQ Question 1-5: Other reasons, percent of patients (3 months after treatment, PP): (0.75%) | SAQ Question 1-5: Severely limited, number of patients (3 months after treatment, PP): 16 | SAQ Question 1-5: Severely limited, percent of patients (3 months after treatment, PP): (1.09%) | SAQ Question 1-5: Slightly limited, number of patients (3 months after treatment, PP): 441 | SAQ Question 1-5: Slightly limited, percent of patients (3 months after treatment, PP): (30.06%) | SAQ Question 1-9: Mildly limited, % of cases (3 months after treatment, PP): (18.45%) | SAQ Question 1-9: Mildly limited, cases (3 months after treatment, PP): 264 | SAQ Question 1-9: Moderately limited, % of cases (3 months after treatment, PP): (20.48%) | SAQ Question 1-9: Moderately limited, cases (3 months after treatment, PP): 293 | SAQ Question 1-9: Not limited, % of cases (3 months after treatment, PP): (3.70%) | SAQ Question 1-9: Not limited, cases (3 months after treatment, PP): 53 | SAQ Question 1-9: Other reaons, % of cases (3 months after treatment, PP): (6.08%) | SAQ Question 1-9: Other reaons, cases (3 months after treatment, PP): 87 | SAQ Question 1-9: Severely limited, % of cases (3 months after treatment, PP): (39.41%) | SAQ Question 1-9: Severely limited, cases (3 months after treatment, PP): 564 | SAQ Question 1-9: Slightly limited, % of cases (3 months after treatment, PP): (11.88%) | SAQ Question 1-9: Slightly limited, cases (3 months after treatment, PP): 170 | SAQ 2nd question: 6, % of cases (6 months after treatment, FAS): (0.00%) | SAQ 2nd question: 6, cases (6 months after treatment, FAS): 0 | SAQ 2nd question: Clearly increased, % of cases (6 months after treatment, FAS): (0.98%) | SAQ 2nd question: Clearly increased, cases (6 months after treatment, FAS): 17 | SAQ 2nd question: Clearly reduced, % of cases (6 months after treatment, FAS): (22.98%) | SAQ 2nd question: Clearly reduced, cases (6 months after treatment, FAS): 400 | SAQ 2nd question: Same, % of cases (6 months after treatment, FAS): (37.33%) | SAQ 2nd question: Same, cases (6 months after treatment, FAS): 650 | SAQ 2nd question: Slightly increased, % of cases (6 months after treatment, FAS): (3.68%) | SAQ 2nd question: Slightly increased, cases (6 months after treatment, FAS): 64 | SAQ 2nd question: Slightly reduced, % of cases (6 months after treatment, FAS): (35.04%) | SAQ 2nd question: Slightly reduced, cases (6 months after treatment, FAS): 610 | SAQ 3rd question: 1-2 times per week, % of cases (6 months after treatment, FAS): (35.04%) | SAQ 3rd question: 1-2 times per week, cases (6 months after treatment, FAS): 610 | SAQ 3rd question: 1-3 times per day, % of cases (6 months after treatment, FAS): (3.68%) | SAQ 3rd question: 1-3 times per day, cases (6 months after treatment, FAS): 64 | SAQ 3rd question: <1 time per week, % of cases (6 months after treatment, FAS): (22.98%) | SAQ 3rd question: <1 time per week, cases (6 months after treatment, FAS): 400 | SAQ 3rd question: No onset, % of cases (6 months after treatment, FAS): (0.00%) | SAQ 3rd question: No onset, cases (6 months after treatment, FAS): 0 | SAQ 3rd question: ≧3 times per week, % of cases (6 months after treatment, FAS): (37.33%) | SAQ 3rd question: ≧3 times per week, cases (6 months after treatment, FAS): 650 | SAQ 3rd question: ≧4 times per day, % of cases (6 months after treatment, FAS): (0.98%) | SAQ 3rd question: ≧4 times per day, cases (6 months after treatment, FAS): 17 | SAQ Question 1-3: Mildly limited, number of patients (6 months after treatment, FAS): 86 | SAQ Question 1-3: Mildly limited, percent of patients (6 months after treatment, FAS): (4.93%) | SAQ Question 1-3: Moderately limited, number of patients (6 months after treatment, FAS): 20 | SAQ Question 1-3: Moderately limited, percent of patients (6 months after treatment, FAS): (1.15%)
